System: K562 leukemia cancer cells
Method: DOX-loaded ICVs were tested for cytotoxicity to K562 cancer cells compared to free DOX, as assessed by using an MTT assay (see FIG. 5).

In the case of `COc1cccc2c1C(=O)c1c(O)c3c(c(O)c1C2=O)C[C@@](O)(C(=O)CO)C[C@@H]3O[C@H]1C[C@H](N)[C@H](O)[C@H](C)O1` [DOX, doxorubicin], the “order of K562 cytotoxicity” value is reported as “DOX>NK92 ICVs-DOX>K562 ICVs-DOX”.

From patent US20220119767A1, “NATURAL KILLER CELL INDUCED CELLULAR VESICLES FOR CANCER THERAPY” (The Regents of the University of California, priority 2019, published 2022)
